Measured values from PMC9139979, “Features of ZED1227: The First-In-Class Tissue Transglutaminase Inhibitor Undergoing Clinical Evaluation for the Treatment of Celiac Disease” (Cells, 2022).
Entries after “also recorded” stand apart in the source; their conditions may differ.

Experiments:
[1] = Caco-2 cell permeability assay (CacoReady); assay type: in vitro ADME; conditions: human, apical 200 μM, HBSS pH 6.5, 1% DMSO
Protocol: The permeability coefficient (Papp value) was obtained from Caco-2 monolayer studies predicting oral/intestinal bioavailability of the tested compound. The assay was performed using CacoReady^TM ready-to-use kits from ReadyCell according to the manufacturer’s protocol. […] The concentration of ZED1227 in the basal and apical media was determined by HPLC. The initial concentration of ZED1227 in the apical medium was 200 μM. Propranolol (20 μM final concentration) was used as a control to validate each ready-to-use plate. Compound stock solutions were prepared in DMSO and further diluted to 1% DMSO using HBSS pH 6.5 to yield the desired working concentration.

Caco-2 cells = assay: BrdU cell proliferation ELISA, Caco-2; assay type: cell-based, human; conditions: up to 1,000 μM, 24 h + 24 h
Protocol: (§1) Cytotoxicological analysis of ZED1227 was performed using Huh7 (human liver carcinoma, CLS Cell Lines Service GmbH, Eppelheim, Germany) and Caco-2 cells (human epithelial colorectal adenocarcinoma, Sigma Aldrich, Taufkirchen, Germany) with respect to the effect on proliferation and viability, according to the assay protocols provided by the manufacturers of the respective kits. The Cell Proliferation ELISA (BrdU, colorimetric) was purchased from Roche (Mannheim, Germany), whereas the Cell Proliferation and Cytotoxicity Assay EZ4U was purchased from Biomedica (Vienna, Austria). Briefly, Caco-2 cells (in MEM with 1% non-essential amino acid solution, both Sigma Aldrich (Taufkirchen, Germany), 10% fetal bovine serum, 2 mM L-glutamine, 100 U/mL penicillin–streptomycin, all from Gibco) or Huh7 cells (in DMEM low glucose, Sigma Aldrich (Taufkirchen, Germany), 10% fetal bovine serum, 1 mM sodium pyruvate, 100 U/mL penicillin–streptomycin, all from Gibco) were cultured in 96 well plates, using 2.5 μg/mL cycloheximide and 0.2 μg/mL camptothecin-treated cells as positive control. In the 5-bromo-2′-deoxyuridine (BrdU) assay (determination of cell proliferation), the cells were incubated with ZED1227 working solution (1% DMSO in culture medium) up to a concentration of 1,000 μM for 24 h, followed by addition of BrdU into the culture medium and further culturing for 24 h. […]

Huh7 cells = assay: BrdU cell proliferation ELISA, Huh7; assay type: cell-based, human; conditions: up to 1,000 μM, 24 h + 24 h
Protocol: as §1

hTG6 = molecular target: T1, hTG6 (Homo sapiens, UniProt O95932); assay: Fluorescent transamidation assay (DCC-assay), hTG6; assay type: biochemical
T1 construct: purchased Zedira T021
T1 sequence (O95932 1-706): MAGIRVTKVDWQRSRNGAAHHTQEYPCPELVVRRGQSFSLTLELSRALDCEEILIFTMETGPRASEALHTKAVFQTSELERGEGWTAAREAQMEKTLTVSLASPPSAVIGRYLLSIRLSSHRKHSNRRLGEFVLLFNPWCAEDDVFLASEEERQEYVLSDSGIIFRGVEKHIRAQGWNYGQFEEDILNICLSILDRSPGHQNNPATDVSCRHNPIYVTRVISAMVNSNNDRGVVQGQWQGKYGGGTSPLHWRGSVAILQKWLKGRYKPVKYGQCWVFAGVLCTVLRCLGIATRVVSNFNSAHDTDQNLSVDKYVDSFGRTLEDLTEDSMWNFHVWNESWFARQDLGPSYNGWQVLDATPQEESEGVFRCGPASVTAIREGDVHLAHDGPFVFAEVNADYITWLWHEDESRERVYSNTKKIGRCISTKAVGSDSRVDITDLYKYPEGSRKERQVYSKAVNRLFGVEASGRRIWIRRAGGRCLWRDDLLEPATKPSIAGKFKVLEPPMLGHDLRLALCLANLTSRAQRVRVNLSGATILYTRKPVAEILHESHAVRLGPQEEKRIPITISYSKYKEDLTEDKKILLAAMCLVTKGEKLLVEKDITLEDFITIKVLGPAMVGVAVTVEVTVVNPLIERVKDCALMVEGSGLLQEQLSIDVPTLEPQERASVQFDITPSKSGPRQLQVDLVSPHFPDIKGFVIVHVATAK
Protocol: Inhibition data were determined using the fluorescent transamidation assay (dansylcadaverine incorporation into glutamine-donor substrate N,N-dimethyl casein, DCC-assay). Briefly, to 15 μL of ZED1227 solution (dissolved and serial diluted in 2% (v/v) DMSO/assay buffer), 285 μL assay buffer [47.5 mM tris(hydroxymethyl)aminomethane, 9.5 mM CaCl2, 9.5 mM glutathione, 2.4% (v/v) glycerol, 190 mM NaCl, pH 8.0] containing dansylcadaverine (15.9 μM), N,N-dimethyl casein (3.8 μM) and the indicated recombinant transglutaminase enzyme [0.95 μg/mL hTG1 (T035), 0.81 μg/mL hTG2 (T022), 0.83 μg/mL hTG6 (T021), all from Zedira] were added, mixed and the kinetic measurement started immediately. […]
Fluorescence emission was continuously monitored for 30 min at λem = 500 nm (λex = 330 nm) and 37 °C using a CLARIOstar fluorescence plate reader (BMG Labtech, Ortenberg, Germany). […] The respective IC50 (and IC90 for TG2) values were calculated by non-linear regression using the MARS software package (BMG Labtech). […]
To facilitate comparability during lead structure optimization and to roughly estimate concentrations needed at the target site, the apparent IC50 values (calculated by four-parameter non-linear fit by MARS software) for irreversible inhibitors are more instructive and are therefore reported. […]

[2] = test system: adult patients with well-controlled celiac disease; design: method as in PMID 34192430; conditions: cited from earlier work

CCC(CC)CNC(=O)Cn1cccc(NC(=O)[C@H](CC/C=C/C(=O)OC)NC(=O)c2cncn2C)c1=O [ZED1227, (S,E)-Methyl 7-(1-(2-(2-ethylbutylamino)-2-oxoethyl)-2-oxo-1,2-dihydropyridin-3-ylamino)-6-(1-methyl-1H-imidazole-5-carboxamido)-7-oxohept-2-enoate]
Papp A→B at 200 μM [1]: < 1 ×10⁻⁶ cm/s | Cytotoxicity: Proliferation, Caco-2 cells (Caco-2 cells): nor did it affect cell proliferation rates; also recorded: no effect up to 1,000 μM no effect up to 1,000 μM no effect up to 1,000 μM no effect up to 1,000 μM | Cytotoxicity: Proliferation, Huh7 cells (Huh7 cells): nor did it affect cell proliferation rates; also recorded: no effect up to 1,000 μM no effect up to 1,000 μM no effect up to 1,000 μM no effect up to 1,000 μM | Selectivity hTG6 versus hTG2 (hTG6; ratio of app. IC50 values): 122 fold | IC50 (hTG6; recombinant, transamidation assay, read-out: App. IC50 hTG6): 6.44 µM | Effect on gluten-induced duodenal mucosal injury, phase 2a ([2]; 6-week treatment, 10, 50, 100 mg oral, 3 g daily gluten challenge): protect celiac patients from gluten-induced mucosal injury; also recorded: all dose levels attenuated gluten-induced duodenal mucosal injury; also recorded: protected celiac patients from mucosal damage | Tolerability in gluten challenge study ([2]; celiac patients, gluten challenge): well-tolerated
